Calls of active or inactive are those of the source.

One test deals with Vero. Put plainly: cells. The conditions noted are these: Chlorocebus sabaeus. It is filed as functional.
The nature of test [1]: viability loss in HeLa cells – cytotoxicity control for MgcRacGAP inhibitor project, dose response (AID 624300). It is filed as functional.
The target of test [2] is T1, Rac GTPase-activating protein 1 (Homo sapiens, UniProt Q9H0H5).
T1 sequence (Q9H0H5 whole entry): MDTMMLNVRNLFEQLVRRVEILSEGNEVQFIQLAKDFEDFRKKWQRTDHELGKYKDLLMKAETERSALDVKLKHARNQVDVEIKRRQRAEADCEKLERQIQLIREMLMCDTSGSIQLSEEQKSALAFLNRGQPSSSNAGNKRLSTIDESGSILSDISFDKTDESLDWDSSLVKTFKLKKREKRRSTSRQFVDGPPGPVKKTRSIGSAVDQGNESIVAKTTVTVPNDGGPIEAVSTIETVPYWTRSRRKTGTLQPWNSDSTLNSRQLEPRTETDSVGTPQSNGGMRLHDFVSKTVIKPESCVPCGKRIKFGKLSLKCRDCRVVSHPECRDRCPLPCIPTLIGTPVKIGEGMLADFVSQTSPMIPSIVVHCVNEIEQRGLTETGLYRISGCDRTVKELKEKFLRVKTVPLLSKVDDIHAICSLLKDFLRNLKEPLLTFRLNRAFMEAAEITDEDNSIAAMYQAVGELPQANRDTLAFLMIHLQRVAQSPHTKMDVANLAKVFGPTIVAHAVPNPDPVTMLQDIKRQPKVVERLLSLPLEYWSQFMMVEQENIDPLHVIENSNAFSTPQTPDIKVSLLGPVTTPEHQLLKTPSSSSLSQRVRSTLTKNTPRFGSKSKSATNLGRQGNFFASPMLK
Description: blockers of MgcRacGAP-driven Rac1 GTP hydrolysis – biochemical, ADP Hunter fluorescence, primary and confirmatory, confirmation (AID 624330). It counts as functional.

Test [3] has as its target T2, Heat shock factor protein 1 (Mus musculus, UniProt P38532).
T2 sequence (P38532 whole entry): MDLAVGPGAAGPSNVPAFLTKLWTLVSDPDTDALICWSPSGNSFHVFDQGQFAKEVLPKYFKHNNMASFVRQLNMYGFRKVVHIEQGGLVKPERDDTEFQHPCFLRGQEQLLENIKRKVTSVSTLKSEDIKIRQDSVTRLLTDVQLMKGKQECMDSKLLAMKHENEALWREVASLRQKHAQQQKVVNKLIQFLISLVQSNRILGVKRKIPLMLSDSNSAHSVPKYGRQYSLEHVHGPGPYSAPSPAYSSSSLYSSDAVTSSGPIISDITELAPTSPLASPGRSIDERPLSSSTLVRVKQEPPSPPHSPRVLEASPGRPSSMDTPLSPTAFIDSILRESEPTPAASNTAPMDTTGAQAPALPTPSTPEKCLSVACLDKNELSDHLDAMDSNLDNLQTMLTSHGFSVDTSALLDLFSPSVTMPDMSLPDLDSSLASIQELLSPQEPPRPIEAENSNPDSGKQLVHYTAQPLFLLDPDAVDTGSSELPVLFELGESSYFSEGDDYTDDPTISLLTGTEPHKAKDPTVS
Put plainly: decrease of HSF1-responsive luciferase luminescence – cell-based, NIH3T3, dose retest, confirmation (AID 2382).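 Also: NIH3T3 fibroblasts with HSF1-driven luciferase reporter stressed by proteasome inhibitor MG132; luminescence from HSF1-driven luciferase expression after 8 hours of MG132 stress.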 It is filed as functional.

The subject of another test is H9c2. Put plainly: cells. It is filed as functional, cell-based. The conditions noted are these: Rattus norvegicus, H9c2, Myocardium.
The next test deals with T3, Leucine aminopeptidase (Plasmodium falciparum 3D7, UniProt Q8IL11).
T3 sequence (Q8IL11 whole entry): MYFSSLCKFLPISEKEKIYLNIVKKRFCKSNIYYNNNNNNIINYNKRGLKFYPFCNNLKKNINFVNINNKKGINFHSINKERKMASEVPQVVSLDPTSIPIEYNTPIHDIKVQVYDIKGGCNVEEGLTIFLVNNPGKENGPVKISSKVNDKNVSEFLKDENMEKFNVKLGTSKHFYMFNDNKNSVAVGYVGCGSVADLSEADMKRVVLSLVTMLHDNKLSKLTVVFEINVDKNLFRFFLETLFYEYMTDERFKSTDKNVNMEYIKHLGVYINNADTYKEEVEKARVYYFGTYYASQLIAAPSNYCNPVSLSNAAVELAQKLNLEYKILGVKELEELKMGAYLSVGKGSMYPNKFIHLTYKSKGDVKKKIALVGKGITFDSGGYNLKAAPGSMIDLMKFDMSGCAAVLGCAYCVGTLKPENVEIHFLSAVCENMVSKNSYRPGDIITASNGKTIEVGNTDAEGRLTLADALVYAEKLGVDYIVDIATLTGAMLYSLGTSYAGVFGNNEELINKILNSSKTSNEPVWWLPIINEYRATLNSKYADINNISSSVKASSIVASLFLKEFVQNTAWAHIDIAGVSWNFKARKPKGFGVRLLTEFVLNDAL
Put plainly: P. falciparum M17LAP inhibitors, primary screen, biochemical, fluorogenic H-Leu-NHMec substrate, 1536-well (AID 1619). It counts as functional.

The next test concerns the target Cytochrome P450 2C19 (Homo sapiens, UniProt P33261). Put plainly: Cytochrome panel assay with activity outcomes. Panel member name: p450-cyp2c19 Compounds with AC50 equal or less than 10 uM are considered active. It counts as functional. The conditions noted are these: read-out: AC50.
Another test has as its target Cytochrome P450 3A4 (Homo sapiens, UniProt P08684).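 Also: CYP3A4 tested as one member of a cytochrome P450 panel screen.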
Test [4] has as its target T4, RNA-binding protein pos-1 (Caenorhabditis elegans, UniProt G5EF15).
T4 sequence (G5EF15 whole entry): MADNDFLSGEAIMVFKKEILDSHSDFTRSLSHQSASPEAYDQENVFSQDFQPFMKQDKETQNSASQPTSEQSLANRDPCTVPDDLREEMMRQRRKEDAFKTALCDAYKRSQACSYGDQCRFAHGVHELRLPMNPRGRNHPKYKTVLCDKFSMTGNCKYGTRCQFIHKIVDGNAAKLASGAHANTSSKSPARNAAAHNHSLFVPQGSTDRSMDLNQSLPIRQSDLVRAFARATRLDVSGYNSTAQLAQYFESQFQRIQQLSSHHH
Description: disruptors of C. elegans POS-1 RNA interaction – biochemical, fluorescence polarization, dose response (AID 1964).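 Also: purified POS-1 fused to maltose binding protein made in E. coli; potency of compounds blocking POS-1 binding to fluorescent RNA.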

In test [5] the target is T5, Zinc finger protein mex-5 (Caenorhabditis elegans, UniProt Q9XUB2).
T5 sequence (Q9XUB2 whole entry): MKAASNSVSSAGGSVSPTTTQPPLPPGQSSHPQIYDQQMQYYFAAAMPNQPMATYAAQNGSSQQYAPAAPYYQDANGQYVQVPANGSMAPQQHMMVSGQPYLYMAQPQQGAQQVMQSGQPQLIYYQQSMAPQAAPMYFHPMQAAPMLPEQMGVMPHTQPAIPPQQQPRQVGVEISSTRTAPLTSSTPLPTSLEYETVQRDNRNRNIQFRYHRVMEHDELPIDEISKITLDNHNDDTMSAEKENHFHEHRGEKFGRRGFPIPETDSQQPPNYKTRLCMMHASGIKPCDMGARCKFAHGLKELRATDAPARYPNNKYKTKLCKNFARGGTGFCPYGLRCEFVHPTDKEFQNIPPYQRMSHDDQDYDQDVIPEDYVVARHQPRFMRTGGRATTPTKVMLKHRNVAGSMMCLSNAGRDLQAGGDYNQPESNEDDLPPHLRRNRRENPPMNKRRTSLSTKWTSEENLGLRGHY
Description: potency of MEX-5 RNA-binding blockers – biochemical, C. elegans, fluorescence polarization, dose response (AID 1960).

Test [6] concerns BJ. Put plainly: BJ-TERT fibroblast viability loss – cell-based, RAS-independent, luminescence, dose response (AID 1933). It counts as functional. The conditions noted are these: Homo sapiens.
The test system of test [7] is BJ. Put plainly: cells. It counts as functional, cell-based. The conditions noted are these: Homo sapiens.
The subject of test [8] is BJ. Put plainly: BJ-TERT-LT-ST fibroblast viability loss – cell-based, RAS-independent, luminescence, dose response (AID 1935).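 Also: BJ fibroblasts immortalized with TERT plus LT and ST oncogenes.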 It is filed as functional. The conditions noted are these: Homo sapiens.
Test [9] in a line: DRD fibroblast viability loss – cell-based, non-viral oncogenic, luminescence, dose response (AID 1934). It is filed as functional. The conditions noted are these: Homo sapiens.
Test [10] in a line: luciferase reporter signal suppression in cells – H4 neuroglioma cells, luminescence, dose response (AID 1990). It counts as functional, cell-based.
Test [11] in a line: Luminescence Cell-Based Dose Response HTS to Identify Inhibitors of 5'UTR Stem-Loop Driven Prion Protein mRNA Translation in H4 Neuroglioblastoma Cells. [Related pubchem assays: 1827 (Project Summary), 1813 (Primary HTS)]. It is filed as functional.
Test [12] is described as follows: alpha-synuclein stem-loop luciferase translation blockers – H4 neuroglioma cells, luminescence, confirmation (AID 1988). It is filed as functional, cell-based.
The next test deals with INS1. Description: INS-1E survival protection against cytokine death – cell-based, luminescence, retest, dose response (AID 449756).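 Also: cell death triggered by IL-1 beta plus TNF-alpha plus IFN-gamma mixture; protective hits raise ATP signal compared with cytokine alone wells.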 The conditions noted are these: Rattus norvegicus. It is filed as functional.

Chain of Cytochrome P450 3A4 (P08684 whole entry): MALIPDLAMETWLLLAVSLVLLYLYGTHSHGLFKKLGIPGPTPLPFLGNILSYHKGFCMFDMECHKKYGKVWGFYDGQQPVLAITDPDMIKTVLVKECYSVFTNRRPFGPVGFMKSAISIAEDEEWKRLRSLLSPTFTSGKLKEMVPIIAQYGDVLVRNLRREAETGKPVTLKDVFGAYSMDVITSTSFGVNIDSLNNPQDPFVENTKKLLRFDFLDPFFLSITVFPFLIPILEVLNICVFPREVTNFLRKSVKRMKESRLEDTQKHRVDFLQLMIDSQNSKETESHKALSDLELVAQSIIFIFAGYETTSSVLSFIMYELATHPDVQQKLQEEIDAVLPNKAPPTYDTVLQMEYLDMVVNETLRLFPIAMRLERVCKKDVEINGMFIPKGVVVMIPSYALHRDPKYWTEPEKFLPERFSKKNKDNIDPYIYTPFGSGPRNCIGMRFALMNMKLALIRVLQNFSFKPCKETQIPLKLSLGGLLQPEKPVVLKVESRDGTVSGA
Chain of Cytochrome P450 2C19 (P33261 whole entry): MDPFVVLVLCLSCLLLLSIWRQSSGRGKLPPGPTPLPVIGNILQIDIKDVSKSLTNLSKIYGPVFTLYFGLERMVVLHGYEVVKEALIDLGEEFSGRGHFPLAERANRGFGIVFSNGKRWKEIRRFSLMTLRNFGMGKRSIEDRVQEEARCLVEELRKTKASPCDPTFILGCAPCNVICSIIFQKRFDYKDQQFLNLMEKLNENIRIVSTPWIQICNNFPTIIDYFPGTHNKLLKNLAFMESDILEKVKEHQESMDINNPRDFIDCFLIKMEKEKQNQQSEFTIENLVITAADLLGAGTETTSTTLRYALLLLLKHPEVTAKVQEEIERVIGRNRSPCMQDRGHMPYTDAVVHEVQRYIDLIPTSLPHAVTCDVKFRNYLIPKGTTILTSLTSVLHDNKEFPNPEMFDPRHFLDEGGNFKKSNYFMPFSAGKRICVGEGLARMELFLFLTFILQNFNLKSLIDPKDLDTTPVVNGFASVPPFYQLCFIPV

On to `COc1ccc(-n2cccc2/C=C/[N+](=O)[O-])cc1`, for which the CC50 is 16 µM (active) in the test with Vero and 42.3 µM (active) in test [1]. The half-maximal inhibitory concentration (IC50) in test [2] is 44 µM (active).

Take `COc1cc2c(cc1N=C(S)Nc1cccc(C(F)(F)F)c1)oc1ccccc12`: the cytotoxic concentration (CC50) in test [1] was 100 µM (active). Besides, in test [2], the half-inhibitory concentration (IC50) was 225 µM (active).

For the compound `COc1ccc(-c2csc(/C(C#N)=C(\O)CSc3nccn3C)n2)cc1OC`, the EC50 in test [3] is listed as > 195 µM (not active). In addition, the IC50 with H9c2 was > 79 µM (inactive).

With `CC1=C(C)CC(C(=O)Nc2cccc(Cl)c2)C(C(=O)O)C1` (configuration not stated), at Leucine aminopeptidase, the IC50 is 2.38 µM (active).

For the compound `Clc1ccc(Nc2nc[nH]n2)cc1`, the IC50 on Leucine aminopeptidase is 1.53 µM (active). Further, the half-maximal activity concentration (AC50) on Cytochrome P450 2C19 was 14.1 µM (inconclusive); at Cytochrome P450 3A4 it was 31.6 µM (inconclusive).

For `OCCCNc1ncnc2sc3c(c12)CCN(Cc1ccccc1)C3`, the EC50 in [4] is > 300 µM (not active); in test [5], 24.9 µM (active).

Turning to `CCCCN1C(=O)/C(=C2/Sc3ccc(OC)cc3N2CC)SC1=S`, the EC50 in [4] and in test [5] was > 300 µM (inconclusive) each time.

As to `COc1ccc(/C=C2\CCCC(C(=O)C(F)(F)F)=C2O)cc1OC`, the EC50 in test [4] is > 300 µM (not active); in test [5], 254 µM (inconclusive).

With `CCOC(=O)/C(C#N)=C\C=C1C=CN(C)C=C1`, the IC50 on Leucine aminopeptidase was 90 µM (active).

For the compound `Nc1ccccc1C(=O)NNc1c2ccccc2nc2ccccc12`, the cytotoxic concentration (CC50) in test [1] was 100 µM (active). The half-inhibitory concentration (IC50) in test [2] was 98.3 µM (active).

Consider `O=C(O)c1cccc(-c2ccc(/C=N/NC(=O)C3COc4ccccc4O3)o2)c1` (configuration not stated), for which the IC50 at Leucine aminopeptidase is 45.6 µM (active).

In the case of `Cc1n[nH]c(O)c1/C=N/N1CCOCC1`, the EC50 in [4] and in test [5] was > 300 µM (not active) each time.

Regarding `Cc1ccc(-n2c(SCC(=O)OC(C)C)nnc2-c2ccco2)cc1`, the IC50 at Leucine aminopeptidase was 31.2 µM (active).

In the case of `COc1cccc(NC(=O)CSc2nc3c(oc4ccccc43)c(=O)[nH]2)c1`, the IC50 at Leucine aminopeptidase was < 1 µM (active).

For `O=S(=O)(NNC(=S)Nc1ccc(S(=O)(=O)Nc2ncccn2)cc1)c1ccc(Br)cc1`, the concentration for a half-maximal effect (EC50) in test [4] was 2.97 µM (inconclusive); in [5], 5.04 µM (active).

For the compound `C=CCNC(=O)c1ccc(NC(=O)C2=CSCCO2)cc1`, the 50% effective concentration (EC50) in the test on BJ [6] is 24.8 µM (active); in the test with BJ [7], 111 µM (active); in the test with BJ [8], > 150 µM (not active); in test [9] it was 60.9 µM (active).

Regarding `CCOc1cc(/C=C(\C#N)c2[nH]nc(N)c2C#N)ccc1O`, the EC50 was 11.9 µM (active) in test [10], 14.6 µM (active) in test [11] and > 120 µM (not active) in test [12]. In [1], the CC50 is 100 µM (active).

Turning to `C/C(=N\NC(=O)c1ccccc1NC(=O)c1ccc(Cl)cc1)c1ccncc1`, the concentration giving a half-maximal response (EC50) is 0.856 µM (inconclusive) in the test with BJ [6], 1.21 µM (inconclusive) with BJ [7], 2.18 µM (inconclusive) in the test on BJ [8] and 1.12 µM (active) in test [9]. Also, the AC50 in the test on INS1 is 0.902 µM (active).

On to `CC1(C)CC(=O)C2=C(C1)OC(N)=C(C#N)C21C(=O)N2CCCc3cccc1c32` (configuration not stated), for which the EC50 in test [4] and in test [5] was > 300 µM (not active) in each case.
